From ChEMBL document CHEMBL1127541, “3,4-Dihydro-3-amino-2H-1-benzopyran derivatives as 5-HT1A receptor ligands and potential anxiolytic agents. 1. Synthesis and structure--activity relationship studies” (J Med Chem, 1994) come the findings set out here.

One test has as its target D(2) dopamine receptor (Bos taurus, UniProt P20288). Kind of test: Binding affinity against D2 receptor in calf caudate nucleus.
Test [1] concerns the target T1, Alpha-2A adrenergic receptor (Bos taurus, UniProt Q28838).
T1 sequence (Q28838 whole entry): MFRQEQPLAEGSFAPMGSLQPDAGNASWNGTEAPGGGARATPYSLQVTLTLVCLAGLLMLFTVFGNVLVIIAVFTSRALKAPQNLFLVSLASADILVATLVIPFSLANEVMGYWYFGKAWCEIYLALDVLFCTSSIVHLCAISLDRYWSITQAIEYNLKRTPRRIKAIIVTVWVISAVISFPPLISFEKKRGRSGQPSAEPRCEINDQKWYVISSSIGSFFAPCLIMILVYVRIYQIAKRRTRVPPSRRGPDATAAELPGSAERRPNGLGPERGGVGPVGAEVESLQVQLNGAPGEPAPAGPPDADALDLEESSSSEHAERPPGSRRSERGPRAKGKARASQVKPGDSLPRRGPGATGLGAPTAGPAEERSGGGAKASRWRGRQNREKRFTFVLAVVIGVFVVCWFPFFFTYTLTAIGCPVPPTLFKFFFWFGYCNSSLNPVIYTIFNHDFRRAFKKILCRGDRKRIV
Kind of test: Binding affinity against alpha-2 adrenergic receptor in calf frontal cortex. It is filed as tissue-based.

Test [2] has as its target T2, Alpha-1A adrenergic receptor (Bos taurus, UniProt P18130).
T2 sequence (P18130 whole entry): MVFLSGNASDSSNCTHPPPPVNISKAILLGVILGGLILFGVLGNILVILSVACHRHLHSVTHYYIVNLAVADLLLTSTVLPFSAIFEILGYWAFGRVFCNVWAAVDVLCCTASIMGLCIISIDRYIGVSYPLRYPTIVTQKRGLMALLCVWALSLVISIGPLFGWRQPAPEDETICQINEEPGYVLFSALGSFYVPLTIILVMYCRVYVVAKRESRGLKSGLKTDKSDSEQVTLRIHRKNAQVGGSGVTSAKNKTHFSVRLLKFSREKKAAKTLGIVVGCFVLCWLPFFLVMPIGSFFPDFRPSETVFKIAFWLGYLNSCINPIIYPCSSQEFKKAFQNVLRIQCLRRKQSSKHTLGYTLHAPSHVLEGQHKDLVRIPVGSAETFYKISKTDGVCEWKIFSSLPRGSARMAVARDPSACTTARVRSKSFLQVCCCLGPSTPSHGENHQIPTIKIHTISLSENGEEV
Kind of test: Binding affinity against alpha-1 adrenergic receptor in calf frontal cortex. It counts as tissue-based.

The target of test [3] is T3, 5-hydroxytryptamine receptor 1A (Rattus norvegicus, UniProt P19327).
T3 sequence (P19327 whole entry): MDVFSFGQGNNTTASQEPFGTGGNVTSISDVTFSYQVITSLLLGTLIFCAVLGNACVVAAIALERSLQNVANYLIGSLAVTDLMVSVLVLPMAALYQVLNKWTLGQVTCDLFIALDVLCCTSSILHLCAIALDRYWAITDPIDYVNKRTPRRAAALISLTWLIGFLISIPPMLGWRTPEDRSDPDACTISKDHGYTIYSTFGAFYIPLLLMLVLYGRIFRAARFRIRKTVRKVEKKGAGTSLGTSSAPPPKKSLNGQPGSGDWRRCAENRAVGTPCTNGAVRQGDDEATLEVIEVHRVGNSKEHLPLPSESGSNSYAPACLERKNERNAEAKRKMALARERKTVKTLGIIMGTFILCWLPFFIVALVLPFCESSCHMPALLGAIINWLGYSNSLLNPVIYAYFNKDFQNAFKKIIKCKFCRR
Kind of test: Binding affinity against 5-hydroxytryptamine 1A (5-HT1A) receptor in rat hippocampus membranes. It is filed as cell membranes, Membrane.

Test [4] deals with 5-hydroxytryptamine receptor 2A (Bos taurus, UniProt Q75Z89). Kind of test: Binding affinity towards 5-hydroxytryptamine 2 receptor in calf frontal cortex. It counts as tissue-based.
The target in the next test is D(1A) dopamine receptor (Bos taurus, UniProt Q95136). Kind of test: Binding affinity towards dopamine receptor D1 in calf striatum. It counts as tissue-based.
The target in test [5] is 5-hydroxytryptamine receptor 1B (Rattus norvegicus, UniProt P28564). Kind of test: Binding affinity for 5-hydroxytryptamine 1B receptor in rat cortex, striatum and globus pallidus. It counts as tissue-based.
The nature of test [6]: Inhibitory concentration of compound was tested as agonist activity against forskolin activated adenylate cyclase. It counts as functional.
Test [7] relates to Mus musculus. Kind of test: The in vivo compartmental activity was evaluated as minimum significant active dose measured by punishment test. It counts as functional.
Test [8] deals with Mus musculus. Kind of test: The in vivo compartmental activity was evaluated as minimum significant active dose measured by Dark/light box test. It counts as functional.
The subject of test [9] is Mus musculus. Kind of test: The in vivo compartmental activity was evaluated as minimum significant active dose measured by Drug discrimination test. It counts as functional.

A value given as a limit tells only on which side of the number the result lay.

Sequence of D(1A) dopamine receptor (Q95136 whole entry): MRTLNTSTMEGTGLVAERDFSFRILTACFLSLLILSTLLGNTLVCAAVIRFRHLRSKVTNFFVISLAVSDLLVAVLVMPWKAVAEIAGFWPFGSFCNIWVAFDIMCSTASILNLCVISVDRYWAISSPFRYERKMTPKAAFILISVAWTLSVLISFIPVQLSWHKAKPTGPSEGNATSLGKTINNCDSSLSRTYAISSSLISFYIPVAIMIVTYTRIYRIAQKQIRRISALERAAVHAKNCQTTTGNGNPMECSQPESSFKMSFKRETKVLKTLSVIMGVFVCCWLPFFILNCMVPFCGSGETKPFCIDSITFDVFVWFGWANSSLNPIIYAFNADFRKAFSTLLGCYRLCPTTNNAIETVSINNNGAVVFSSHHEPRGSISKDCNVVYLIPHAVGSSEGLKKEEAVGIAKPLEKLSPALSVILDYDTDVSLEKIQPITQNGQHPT
Sequence of 5-hydroxytryptamine receptor 2A (Q75Z89 whole entry): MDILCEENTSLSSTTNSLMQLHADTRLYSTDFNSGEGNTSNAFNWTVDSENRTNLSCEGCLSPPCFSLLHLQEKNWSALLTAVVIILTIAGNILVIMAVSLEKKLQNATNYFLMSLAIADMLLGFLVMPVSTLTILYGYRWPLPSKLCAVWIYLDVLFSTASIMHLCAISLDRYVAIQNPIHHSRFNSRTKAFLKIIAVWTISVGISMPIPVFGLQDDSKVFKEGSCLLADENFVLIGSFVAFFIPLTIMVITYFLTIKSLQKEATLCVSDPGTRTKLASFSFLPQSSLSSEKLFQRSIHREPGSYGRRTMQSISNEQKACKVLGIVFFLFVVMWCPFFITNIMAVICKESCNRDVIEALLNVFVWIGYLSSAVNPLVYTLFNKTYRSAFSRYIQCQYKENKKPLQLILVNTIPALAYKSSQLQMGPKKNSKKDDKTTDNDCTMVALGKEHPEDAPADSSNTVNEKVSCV
Sequence of D(2) dopamine receptor (P20288 whole entry): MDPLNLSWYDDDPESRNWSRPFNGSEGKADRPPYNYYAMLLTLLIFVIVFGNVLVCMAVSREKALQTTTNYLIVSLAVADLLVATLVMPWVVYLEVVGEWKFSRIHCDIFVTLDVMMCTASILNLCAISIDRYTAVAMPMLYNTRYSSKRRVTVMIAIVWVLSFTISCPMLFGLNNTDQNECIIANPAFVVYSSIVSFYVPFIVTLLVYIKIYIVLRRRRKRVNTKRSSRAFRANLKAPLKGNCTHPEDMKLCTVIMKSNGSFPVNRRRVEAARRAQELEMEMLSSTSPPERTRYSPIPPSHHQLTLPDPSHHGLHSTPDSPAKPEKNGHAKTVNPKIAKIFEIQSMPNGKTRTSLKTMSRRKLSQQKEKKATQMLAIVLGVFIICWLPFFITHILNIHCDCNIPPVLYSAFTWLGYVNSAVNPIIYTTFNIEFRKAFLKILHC
Sequence of 5-hydroxytryptamine receptor 1B (P28564 whole entry): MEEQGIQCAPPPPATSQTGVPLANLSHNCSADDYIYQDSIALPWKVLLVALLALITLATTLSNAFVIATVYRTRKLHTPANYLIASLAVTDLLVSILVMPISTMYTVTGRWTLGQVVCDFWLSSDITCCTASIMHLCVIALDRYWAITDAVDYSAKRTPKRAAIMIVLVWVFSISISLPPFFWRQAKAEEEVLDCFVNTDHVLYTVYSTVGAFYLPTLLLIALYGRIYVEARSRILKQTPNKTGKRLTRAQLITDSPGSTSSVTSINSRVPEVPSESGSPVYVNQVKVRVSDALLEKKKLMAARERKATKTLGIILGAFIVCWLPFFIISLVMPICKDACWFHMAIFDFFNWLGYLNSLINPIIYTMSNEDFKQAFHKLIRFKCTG

`CCCN(CCC)C1COc2ccccc2C1` (configuration not stated): the IC50 – broadly, the concentration that gives 50% inhibition – on D(2) dopamine receptor was 0.06 µM; in [1] it was 20 µM; in test [2], greater than 1000 µM; in [3] it was 0.4 µM; in test [4], 80 µM; at D(1A) dopamine receptor, greater than 1000 µM. The half-maximal inhibitory concentration (IC50) in test [5] is greater than 1000 µM.

For `CCCN(CCNC(C)=O)C1COc2cccc(OC)c2C1` (configuration not stated), the half-maximal inhibitory concentration (IC50) was 0.6 µM at D(2) dopamine receptor; 10 µM in [1]; greater than 1000 µM in test [2]; 0.04 µM in [3]; greater than 1000 µM in test [4]; greater than 1000 µM at D(1A) dopamine receptor. This compound also gave an IC50 in [5] of 60 µM.

Turning to `CCCN(CCCCN1C(=O)CC2(CCCC2)CC1=O)C1COc2cccc(O)c2C1` (configuration not stated), the IC50 was 0.008 µM at D(2) dopamine receptor; 20 µM in test [1]; 10 µM in test [2]; 0.001 µM in [3]; 4 µM in [4]; 100 µM on D(1A) dopamine receptor. The compound also came in with an IC50 in test [5] of 30 µM.

`CCCN(CCC)C1COc2cccc(O)c2C1` (configuration not stated): the IC50 is 0.4 µM at D(2) dopamine receptor; 2 µM in [1]; 100 µM in test [2]; 0.004 µM in test [3]; greater than 100 µM in [4]; 100 µM at D(1A) dopamine receptor. Further, the half-maximal inhibitory concentration (IC50) in test [5] was greater than 100 µM.

Consider `COc1cccc2c1CC(N1CCCC1)CO2` (configuration not stated), for which the 50% inhibitory concentration (IC50) was 2.5 µM at D(2) dopamine receptor; 3 µM in [1]; 40 µM in [2]; 0.007 µM in [3]; 60 µM in test [4]; 1000 µM on D(1A) dopamine receptor. In addition, the concentration for half-maximal inhibition (IC50) in test [5] stood at 100 µM.

Regarding `CCCN(CCC)C1COc2cccc(OC)c2C1` (single isomer, unassigned; (+)), the IC50 is 0.14 µM on D(2) dopamine receptor; 9.1 µM in test [1]; 2.3 µM in test [2]; 0.002 µM in [3]; 9.7 µM in [4]; greater than 1000 µM at D(1A) dopamine receptor. Also, the 50% inhibitory concentration (IC50) in [5] turned out to be 0.51 µM.

Consider `CCCN(CCCCNS(=O)(=O)c1ccc(C)cc1)C1COc2cccc(OC)c2C1` (single isomer, unassigned; (+)), for which the IC50 at D(2) dopamine receptor came to 0.1 µM; in test [1] it was 2 µM; in test [2], 3 µM; in test [3], 0.0007 µM; in test [4] it was 8 µM; at D(1A) dopamine receptor it was 20 µM. Further, the IC50 in test [5] was found to be 9 µM.

For the compound `CCCN(CCCCN1C(=O)C2CCCC2C1=O)C1COc2cccc(OC)c2C1` (single isomer, unassigned; (+)), the IC50 stood at 0.1 µM at D(2) dopamine receptor; 5 µM in test [1]; 3 µM in test [2]; 0.008 µM in test [3]; 10 µM in test [4]; 50 µM on D(1A) dopamine receptor. In [5], this compound showed an IC50 of 10 µM.

For the compound `CCCN(CCNS(=O)(=O)c1ccc(C)cc1)C1COc2cccc(OC)c2C1` (single isomer, unassigned; (+)), the IC50 is 0.5 µM at D(2) dopamine receptor; 50 µM in [1]; 100 µM in test [2]; 0.008 µM in test [3]; greater than 1000 µM in test [4]; 100 µM on D(1A) dopamine receptor. Further, in test [5], the IC50 is greater than 1000 µM.

Consider `CCCN(CCCCNS(=O)(=O)c1ccc(C)cc1)C1COc2cccc(OC)c2C1` (single isomer, unassigned; (-)), for which the IC50 worked out at 0.06 µM on D(2) dopamine receptor; 2 µM in [1]; 7 µM in test [2]; 0.02 µM in test [3]; 5 µM in test [4]; 20 µM on D(1A) dopamine receptor. In test [5], this compound displayed an IC50 of 20 µM.

Regarding `CCCN(CCCCN1C(=O)C2CCCC2C1=O)C1COc2cccc(OC)c2C1` (single isomer, unassigned; (-)), the IC50 on D(2) dopamine receptor was 0.01 µM; in test [1], 5 µM; in test [2] it was 8 µM; in test [3], 0.001 µM; in [4] it was 3 µM; on D(1A) dopamine receptor, 30 µM. Further, the IC50 in test [5] stood at 30 µM.

As for `CCCN(CCC)C1COc2cccc(OC)c2C1` (stereo in doubt; 4), the IC50 on D(2) dopamine receptor stood at 0.05 µM; in test [1], 4 µM; in test [2] it was 80 µM; in test [3] it was 0.02 µM; in test [4], 60 µM; on D(1A) dopamine receptor, 100 µM. For the same compound, the half-maximal inhibitory concentration (IC50) in test [5] stood at 20 µM.

Take `CCCN(CCCCN1C(=O)CC2(CCCC2)CC1=O)C1COc2cccc(OC)c2C1.O=C(O)C(=O)O` (stereo in doubt; 9g): the IC50 stood at 0.01 µM on D(2) dopamine receptor; 10 µM in test [1]; 6 µM in test [2]; 0.0263 µM in test [6]; 0.0002 µM in test [3]; 1 µM in test [4]. For the same compound, the IC50 at D(1A) dopamine receptor came out at 40 µM; in test [5], 5 µM. The Punishment test msad with Mus musculus [7] is 0.06 mg/kg. The compound also displayed a DLBT in the test with Mus musculus [8] of 2 mg/kg. In the test on Mus musculus [9], this compound showed a DDT msad of 0.3 mg/kg.

As for `CCCN(CCCCN1C(=O)C2CCCC2C1=O)C1COc2cccc(OC)c2C1` (stereo in doubt; 9k), the concentration for half-maximal inhibition (IC50) was determined as 0.02 µM at D(2) dopamine receptor; 5 µM in test [1]; 7 µM in test [2]; 0.002 µM in test [3]; 9 µM in [4]; 40 µM at D(1A) dopamine receptor. For the same compound, the 50% inhibitory concentration (IC50) in [5] stood at 20 µM.

Take `CCCN(CCNS(=O)(=O)c1ccc(C)cc1)C1COc2cccc(OC)c2C1` (stereo in doubt; 15b): the IC50 on D(2) dopamine receptor is 0.1 µM; in test [1], greater than 1000 µM; in [2], 100 µM; in test [3] it was 0.002 µM; in [4], 1 µM; at D(1A) dopamine receptor, 50 µM. Moreover, the IC50 in test [5] was greater than 1000 µM.

On to `CCCN(CCCCNS(=O)(=O)c1ccc(C)cc1)C1COc2cccc(OC)c2C1` (stereo in doubt; 15d), for which the IC50 at D(2) dopamine receptor amounted to 0.2 µM; in test [1], 10 µM; in [2] it was 3 µM; in [3] it was 0.002 µM; in test [4], 10 µM; at D(1A) dopamine receptor, 30 µM. The compound also gave an IC50 in test [5] of 8 µM.

Take `CCCN(CCC)C1COc2cccc(OC)c2C1` (stereo in doubt; (-)-4): the 50% inhibitory concentration (IC50) was 0.21 µM at D(2) dopamine receptor; 0.78 µM in test [1]; 3.5 µM in test [2]; 0.001 µM in [3]; 4 µM in [4]; greater than 1000 µM on D(1A) dopamine receptor. In addition, the IC50 in test [5] is 1 µM.

Turning to `CCCN(CCNS(=O)(=O)c1ccc(C)cc1)C1COc2cccc(OC)c2C1` (stereo in doubt; (-)-15b), the IC50 at D(2) dopamine receptor is 0.05 µM; in [1], 10 µM; in test [2], 1000 µM; in test [3] it was 0.005 µM; in [4], 10 µM; at D(1A) dopamine receptor, 60 µM. The same compound displayed a 50% inhibitory concentration (IC50) in test [5] greater than 1000 µM.

On to `O=C1c2ccccc2S(=O)(=O)N1CCCCN1CCN(c2ncccn2)CC1` [IPSAPIRONE], for which the IC50 at D(2) dopamine receptor is greater than 1000 µM; in test [1], 2.8 µM; in test [2], 1.2 µM; in test [3], 0.035 µM; in test [4] it was 7.5 µM; on D(1A) dopamine receptor, 12 µM. Moreover, in [5], the IC50 is 50 µM.
